Experimental data published in the supplement of paper PMC8024199.
± gives the standard deviation of the averaged measurements.

Key:
Assay in all cases: drug sensitivity score (DSS) (DSS score); higher = more sensitive (stronger growth inhibition); extreme values may be limits of the assay
[1] = test system: Ba/F3 P210-BCR-ABL1 RUNX1wt/wt control (mouse)
Procedure, shortened: (§1)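 Each value is a drug sensitivity score derived from CellTiter-Glo luminescence scaled between vehicle and positive-control wells. Mouse Ba/F3 clones, CRISPR/Cas9-edited at a target exon or edited controls, were seeded at 10,000 cells per well in RPMI with 10% FBS and treated for 72 h at 37 °C and 5% CO2. Compounds from a 528-compound library were tested at five concentrations over a 10,000-fold range, and scores were averaged over two replicates.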

[2] = test system: Ba/F3 P210-BCR-ABL1 RUNX1-/- (mouse)
Procedure, shortened: as §1

[3] = test system: Ba/F3 P210-BCR-ABL1 RUNX1-/mut (mouse)
Procedure, shortened: as §1

| SMILES | drug sensitivity score [1] | drug sensitivity score [2] | drug sensitivity score [3] |
| --- | --- | --- | --- |
| Cc1c(-c2ccc(N3CCc4cccc(C(=O)Nc5nc6ccccc6s5)c4C3)nc2C(=O)O)cnn1CC12CC3CC(CC(C3)C1)C2 | 0 | 0 | 0 |
| CCNC(=O)C[C@@H]1N=C(c2ccc(Cl)cc2)c2cc(OC)ccc2-n2c(C)nnc21 [Molibresib] | 12.1 ± 0.14 | 18.4 ± 1.6 | 18.1 ± 2 |
| O=c1[nH]c(C2CCCN2)nc2c1oc1ccc(Cl)cc12 (centres undefined) | 0 | 7.1 ± 1.1 | 2.3 ± 2.3 |
| COc1cccc2c1c(O)c(C(=O)N(C)c1ccc(C(F)(F)F)cc1)c(=O)n2C [Tasquinimod] | 0.5 ± 0.71 | 0.75 ± 1.1 | 2.15 ± 3 |
| CCS(=O)(=O)N1CC(CC#N)(n2cc(-c3ncnc4[nH]ccc34)cn2)C1 [Baricitinib] | 0 | 0 | 0 |
| COC[C@H](NC(=O)c1cnc(C)s1)C(=O)N[C@@H](COC)C(=O)N[C@@H](Cc1ccccc1)C(=O)[C@@]1(C)CO1 [Oprozomib] | 19.2 ± 0.35 | 22.2 ± 1.3 | 20.5 ± 1.6 |
| Cn1cc(-c2ccc(F)c(C(F)(F)F)c2)nc1C1CCN(c2ncnc3[nH]ncc23)CC1 | 0 | 1.55 ± 1.3 | 0.7 ± 0.99 |
| CCN(c1cc(-c2ccc(CN3CCOCC3)cc2)cc(C(=O)NCc2c(C)cc(C)[nH]c2=O)c1C)C1CCOCC1 [Tazemetostat] | 0 | 0.45 ± 0.64 | 0.25 ± 0.35 |
| C/C=C1\NC(=O)[C@H]2CSSCC/C=C/[C@H](CC(=O)N[C@H](C(C)C)C(=O)N2)OC(=O)[C@H](C(C)C)NC1=O [Romidepsin] | 29.4 ± 0.42 | 29.85 ± 0.071 | 27.6 ± 2.7 |
| CCCN(CCC)C(=O)C1=Cc2ccc(-c3ccc(C(=O)N4CCCC4)cc3)cc2N=C(N)C1 [Motolimod] | 0 | 1.45 ± 0.35 | 1 ± 1.1 |
| N#CC[C@H](C1CCCC1)n1cc(-c2ncnc3[nH]ccc23)cn1 [Ruxolitinib] | 0 | 2.2 ± 0.71 | 1.45 ± 2 |
| CCC(C)(C)C(=O)O[C@H]1C[C@@H](C)C=C2C=C[C@H](C)[C@H](CC[C@@H]3C[C@@H](O)CC(=O)O3)[C@H]21 [Simvastatin] | 0.05 ± 0.071 | 0.4 ± 0.42 | 0.6 ± 0.85 |
| O=C(c1cccc(Cl)c1F)N1CCN(Cc2cccc(Nc3nccs3)n2)CC1 [MK-8745] | 0.85 ± 0.071 | 4.7 ± 0.14 | 3.5 ± 0.99 |
| CCn1cc(-c2ccnc3[nH]c(-c4cccc(CN(C)C)c4)cc23)c(-c2ccc(NC(=O)N(C)C)cc2)n1 | 0.3 ± 0.28 | 14.6 ± 2.2 | 9.15 ± 1.5 |
| Cc1cc(Nc2nc(N[C@@H](C)c3ncc(F)cn3)ncc2Cl)[nH]n1 [AZD1480] | 0 | 0 | 0 |
| CC/C(=C(\c1ccc(O)cc1)c1ccc(OCCN(C)C)cc1)c1ccccc1 [4-hydroxytamoxifen] | 8.6 ± 0.28 | 8.2 ± 0.42 | 8.3 ± 1.1 |
| CNC(=O)c1ccc(C)c(-n2c(C)cc(OCc3ccc(F)cc3F)c(Br)c2=O)c1 | 0 | 0 | 0.05 ± 0.071 |
| COc1ccccc1S(=O)(=O)Nc1ccc2c(c1)CN(C)C(=O)N2 [PFI-1] | 9.35 ± 0.071 | 16 ± 2.8 | 15.9 ± 3.9 |
| O=C(O)c1ccc2c(c1)nc(Nc1cccc(Cl)c1)c1ccncc12 [Silmitasertib] | 4.05 ± 0.21 | 6.45 ± 0.071 | 7.25 ± 2 |
| Cc1ccc(NS(=O)(=O)c2cccc(C#N)c2)c2[nH]cc(C#N)c12 [E7820] | 0.35 ± 0.21 | 2 ± 0.99 | 5.45 ± 2 |
| N#Cc1ccc(COC[C@H]2O[C@@H](n3c(NCc4ccc(Cl)c(Cl)c4)nc4c(N)ncnc43)[C@H](O)[C@@H]2O)cc1 | 3.55 ± 0.071 | 9.1 ± 1.8 | 11.2 ± 4 |
| COc1cc2ncnc(Nc3cccc(Cl)c3F)c2cc1OC(=O)N1CCN(C)C[C@H]1C [AZD3759] | 0 | 0 | 0 |
| COc1cc2c(cc1OCCCN1CCCC1)N=C(N)C21CCC1 [A-366] | 0 | 6.1 ± 0.57 | 6.5 ± 3 |
| O=C(O)CC[C@H]1CC[C@@](c2cc(F)ccc2F)(S(=O)(=O)c2ccc(Cl)cc2)CC1 [MK-0752] | 0 | 0 | 0 |

| SMILES | drug sensitivity score [1] | drug sensitivity score [2] | drug sensitivity score [3] |
| --- | --- | --- | --- |
| COc1cc(Nc2ncc(F)c(Nc3ccc4c(n3)N(COP(=O)(O)O)C(=O)C(C)(C)O4)n2)cc(OC)c1OC [Fostamatinib] | 0.45 ± 0.49 | 1.4 ± 0.14 | 0.45 ± 0.64 |
| Cc1cc2c(C(=O)NC[C@H](C)c3ccccc3)c(O)c(O)cc2c(O)c1-c1c(C)cc2c(C(=O)NC[C@H](C)c3ccccc3)c(O)c(O)cc2c1O [Sabutoclax] | 19.1 ± 0.49 | 21.8 ± 6.7 | 23.5 ± 7.5 |
| CNC(=O)c1ccc2cc([C@@]3(O)CCn4cncc43)ccc2c1 [Orteronel] | 0 | 0 | 0 |
| Cc1sc2c(c1C)C(c1ccc(Cl)cc1)=N[C@@H](CC(=O)Nc1ccc(O)cc1)c1nnc(C)n1-2 [Birabresib] | 15.2 ± 0.49 | 24.1 ± 1.3 | 24.6 ± 3 |
| CNC(=O)c1ccc(-c2cnc3ncc(Cc4ccc5ncccc5c4)n3n2)cc1F [Capmatinib] | 0.25 ± 0.35 | 0.2 ± 0.28 | 0 |
| Nc1ncnc2c1nc(N)n2[C@@H]1O[C@H](CO)[C@@H](O)[C@H]1O [8-amino-adenosine] | 9.4 ± 0.85 | 19.7 ± 0.42 | 15.8 ± 2.4 |
| CN(C)c1cc2c(cc1Sc1nc3c(N)nccc3n1CCNCC(C)(C)C)OCO2 [CUDC-305] | 17.1 ± 0.21 | 18.3 ± 1.6 | 16.9 ± 0.21 |
| Cc1cc(Nc2cc(N3CCN(C)CC3)nc(Sc3ccc(NC(=O)C4CC4)cc3)n2)n[nH]1 [Tozasertib] | 7.95 ± 0.071 | 17.7 ± 0.14 | 12.3 ± 0.85 |
| CC(=O)c1cc2c(o1)C(=O)c1ccccc1C2=O [Napabucasin] | 11.1 ± 2.5 | 17.4 ± 0.14 | 19.4 ± 3 |
| N#CCNC(=O)c1ccc(-c2ccnc(Nc3ccc(N4CCOCC4)cc3)n2)cc1 [Momelotinib] | 6.15 ± 0.64 | 8.45 ± 1.1 | 5.9 ± 1.1 |
| FC(F)(F)c1ccc(CNc2ccc(Cc3c[nH]c4ncc(Cl)cc34)cn2)cn1 [Pexidartinib] | 0.1 ± 0.14 | 0.05 ± 0.071 | 0.1 ± 0.14 |
| NC(=O)/C(=C/n1cnc(-c2cc(C(F)(F)F)cc(C(F)(F)F)c2)n1)c1cncnc1 [Eltanexor] | 19.8 ± 0.99 | 27.8 ± 0.14 | 27.2 ± 0.35 |
| FC(F)(F)c1ccc(/C=C/c2nc(COc3ccc(CCCCn4ccnn4)cc3)co2)cc1 [Mubritinib] | 5.95 ± 0.21 | 5.1 ± 0.28 | 5.55 ± 0.49 |
| O=C1NC(=O)[C@@H](c2cn3c4c(cccc24)CCC3)[C@@H]1c1c[nH]c2ccccc12 [Tivantinib] | 3.25 ± 0.071 | 5.6 ± 0.57 | 5.45 ± 0.071 |
| Cc1ccc(F)c(NC(=O)Nc2ccc(-c3cccc4[nH]nc(N)c34)cc2)c1 [Linifanib] | 0.1 ± 0.14 | 1.1 ± 1.6 | 0.1 ± 0.14 |
| Cn1cncc1[C@@](N)(c1ccc(Cl)cc1)c1ccc2c(c1)c(-c1cccc(Cl)c1)cc(=O)n2C [Tipifarnib] | 4.55 ± 0.071 | 22.4 ± 2.8 | 18.5 ± 2.3 |
| Cn1ncc(Cl)c1-c1cc(C(=O)N[C@H](CN)Cc2cccc(F)c2)sc1Cl [Afuresertib] | 0 | 1.05 ± 1.1 | 1.6 ± 2.3 |
| CNC(=O)c1ccc(N2C(=S)N(c3cnc(C#N)c(C(F)(F)F)c3)C(=O)C23CCC3)cc1F [Apalutamide] | 0 | 0 | 0 |
| Nc1nc(OCc2cc(Br)cs2)c2[nH]cnc2n1 [Lomeguatrib] | 0 | 0 | 0.05 ± 0.071 |
| CCOCc1nc2c(N)nc3ccccc3c2n1CC(C)(C)O [Resiquimod] | 0.15 ± 0.21 | 3.6 | 3.6 ± 5.1 |
| CCn1c(-c2nonc2N)nc2c(C#CC(C)(C)O)ncc(OC[C@H]3CCCNC3)c21 | 0 | 0.75 ± 1.1 | 1.45 ± 2 |
| Cc1cc(Nc2ncnc3ccc(NC4=NC(C)(C)CO4)cc23)ccc1Oc1ccn2ncnc2c1 [Tucatinib] | 0 | 0.4 ± 0.57 | 0 |
| COC(=O)c1ccc([C@H]2c3[nH]c4ccccc4c3C[C@H](C(=O)OC)N2C(=O)CCl)cc1 [RSL3] | 0 | 0 | 0.3 ± 0.42 |
| CCNC(=O)c1noc(-c2cc(C(C)C)c(O)cc2O)c1-c1ccc(CN2CCOCC2)cc1 [Luminespib] | 18.4 ± 0.57 | 29.4 ± 1.7 | 28.7 ± 3.2 |
